# Reference: US10550143B2, “C,O-spiro aryl glycoside compounds, preparation therefor and use thereof” (SHANGHAI INSTITUTE OF MATERIA MEDICA, CHINESE ACADEMY OF …, priority 2015, dated 2020)
# Tests used:
# [1] = biological target: T1, human sodium-glucose cotransporter 2 (SGLT2) (Homo sapiens, UniProt P31639); assay: In vitro SGLT2 inhibition, methyl-α-D-[U-14C]glucopyranoside uptake in NIH3T3-hSGLT2 cells; format: cell-based; conditions: for inhibition at 0.01 µM: SGLT2, 10 nM, read-out: % Inhibition rate ± SD 10 nM; for inhibition at 0.1 µM: SGLT2, 100 nM, read-out: % Inhibition rate ± SD 100 nM
# T1 construct: expressed in transfected cells; host or cells: NIH3T3 (mouse fibroblast) cells expressing hSGLT2
# T1 sequence (P31639 1-672): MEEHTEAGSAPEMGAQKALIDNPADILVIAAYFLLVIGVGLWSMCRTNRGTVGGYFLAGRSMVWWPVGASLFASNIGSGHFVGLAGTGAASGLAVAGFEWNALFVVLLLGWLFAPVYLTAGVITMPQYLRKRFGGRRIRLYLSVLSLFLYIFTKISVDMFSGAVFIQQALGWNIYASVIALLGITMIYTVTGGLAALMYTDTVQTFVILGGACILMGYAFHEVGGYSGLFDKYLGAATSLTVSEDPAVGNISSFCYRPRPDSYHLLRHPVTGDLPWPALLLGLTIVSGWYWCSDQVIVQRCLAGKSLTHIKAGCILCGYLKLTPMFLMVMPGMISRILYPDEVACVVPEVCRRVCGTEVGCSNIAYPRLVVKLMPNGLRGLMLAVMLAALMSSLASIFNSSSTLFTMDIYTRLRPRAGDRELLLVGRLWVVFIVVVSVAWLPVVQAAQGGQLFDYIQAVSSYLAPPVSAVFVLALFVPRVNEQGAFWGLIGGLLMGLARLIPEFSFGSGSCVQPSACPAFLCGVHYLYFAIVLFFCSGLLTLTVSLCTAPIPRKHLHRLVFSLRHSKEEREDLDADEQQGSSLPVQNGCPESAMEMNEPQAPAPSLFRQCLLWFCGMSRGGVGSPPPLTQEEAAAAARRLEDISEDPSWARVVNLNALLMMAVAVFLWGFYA
# Description: Inhibition of the compounds of formula I against human sodium-glucose cotransporter 2 (SGLT2) was determined experimentally and the experimental procedures were carried out as reference^1.
# Methyl-α-D-[U-^14C] glucopyranoside (Perkin Elmer) Dimethylsulfoxide (Genebase, Prod No: 0231)
# (1) Primary screening of hSGLT2 are conducted with two concentrations, 100 nM and 10 nM;
# SGLT2 transports D-glucose at 1:1 sodium-glucose ratio, glucose is replaced by the non-metabolic and isotope labeled methyl-aD-[U-^14C] glucopyranoside and methyl-aD-glucopyranoside, and the amount of isotope transferred into the cells was determined.
# 1) 0.2% gelatin in a 96-well plate was put in a 37° C. incubator for further use;
# 2) NIH3T3-hSGLT2 cells were injected into 96-well plates, 40000/well, and 100 μL culture medium per well:
# 3) the fluid was changed in the next day, and sodium butyrate was added into medium at a final concentration of 2 mM;
# 4) wash the cells with 100 μL of KRH—Na^+ for 3 times and incubate cells with 50 μL for 30 minutes. Cells were changed to 50 μL of compound in KRH—Na^+, uptake buffer (KRH—Na^+ and methyl-α-D-[U-^14C]glucopyranoside and ⅙ mM methyl-α-D-glucopyranoside at 10 μL per well) was added; KRH-acetylcholine solution was used as background control instead of KRH-Na^+
# 5) washed with 100 μL PBS for 3 times, dried, 50 μL lysate and 150 μL scintillation fluid were added, the membrane was covered and flattened, shaken on a shaker to mix thoroughly, centrifuged at 1500 rpm at 4° C. for 3 min, taken out and read;
# 6) the results were analyses.
# The inhibition rate (% Inhibiton) of each sample at each concentration was calculated by dividing the value of the compound well value minus the background value by the value of the DMSO control well value minus the background value.
# IC50 is calculated as follows: […]
# The y value is the activity or inhibition percent, the x value is the concentration of the corresponding compound, top (the maximum y value of the curve), bottom (the minimum y value of the curve).
# SD rats = assay: Acute single administration, urinary glucose changes in SD rats; format: in vivo, rat; design: Urine glucose concentration / The total amount of glucose excreted: unit not given here; conditions: 1 mg/kg oral, after 24 h
# Description: (1) Acutely Administering Compound to Observed the Urinary Glucose Changes in SD Rats
# Thirty-eight male normal SD rats were selected and randomly divided into 5 groups according to body weight and blood glucose, 6-8 in each group. […] After oral gavage, the rats were placed in rats metabolic cages, and urine was collected after 24 h, and the urine volume was recorded, the urine sugar concentration was determined, and urinary sugar content was calculated according to the following formula. Urine content=urinary sugar concentration×urine volume
# Glucose levels in urine are measured by the glucose assay kit.
# Data were expressed as mean±standard deviation (x±s), and Student's t test was used for statistical analysis of the data, p<0.05 was considered statistically significant.
# db/db mice = assay: Chronic administration, random blood glucose in db/db mice; format: in vivo, mouse; conditions: for random blood glucose Pre: before administration; for Hypoglycemic rate % week 1 / Hypoglycemic rate % week 2 / Hypoglycemic rate % week 3 / Hypoglycemic rate % week 4: random blood glucose
# Description: Oral gavage administrated, daily dose volume was 10 mL/kg, administered once daily. Administration time was 9: 00-10:00 daily, and the administration period was 5 weeks.
# The random blood glucose of mice in the normal control group, model control group, test substance administration group and positive control group were determined on the 7th, 14th, 21st, 28th day (9: 00-10:00) every week after the first administration, and food was removed and after 6 hours of starvation, the fasting blood glucose in each group was measured. Free drinking during the hunger process. The rate of decrease of blood glucose was calculated according to the following formula: Average hypoglycemic rate %=(Blood glucose of model control group−Blood glucose of administration group)/Model control group×100%
compound,measurement,setting,value
"CCOc1ccc(Cc2cc([C@@H]3O[C@H](CO)[C@@H](O)[C@H](O)[C@H]3O)ccc2Cl)cc1 [dapagliflozin, reference compound]",inhibition at 0.01 µM,[1],59.6 ± 11.3%
same,inhibition at 0.1 µM,[1],103 ± 2.8%
same,The total amount of glucose excreted,SD rats; Table 3,1860.61 ± 575.28
same,Urine glucose concentration,SD rats; Table 3,251.92 ± 52.98
same,Urine volume,"SD rats; Table 3, in mL",40.75 ± 8.60
same,The total amount of glucose excreted,SD rats; Table 4,1822.21 ± 112.97
same,Urine glucose concentration,SD rats; Table 4,382.41 ± 35.64
same,Urine volume,"SD rats; Table 4, in mL",26.67 ± 3.01
same,random blood glucose week 1,db/db mice; 1 mg/kg once daily oral,14.9 ± 0.9 mmol/L
same,random blood glucose week 2,db/db mice; 1 mg/kg once daily oral,14.9 ± 1.1 mmol/L
same,random blood glucose week 3,db/db mice; 1 mg/kg once daily oral,14.9 ± 1.0 mmol/L
same,random blood glucose week 4,db/db mice; 1 mg/kg once daily oral,14.4 ± 1.1 mmol/L
same,random blood glucose Pre,db/db mice; 1 mg/kg once daily oral,19.3 ± 1.2 mmol/L
same,random blood glucose week 1,db/db mice; 3 mg/kg once daily oral,13.4 ± 0.8 mmol/L
same,random blood glucose week 2,db/db mice; 3 mg/kg once daily oral,14.1 ± 0.8 mmol/L
same,random blood glucose week 3,db/db mice; 3 mg/kg once daily oral,15.2 ± 1.2 mmol/L
same,random blood glucose week 4,db/db mice; 3 mg/kg once daily oral,11.7 ± 1.0 mmol/L
same,random blood glucose Pre,db/db mice; 3 mg/kg once daily oral,17.5 ± 1.2 mmol/L
same,Hypoglycemic rate % week 1,db/db mice; 1 mg/kg once daily oral,24.0%
same,Hypoglycemic rate % week 2,db/db mice; 1 mg/kg once daily oral,23.6%
same,Hypoglycemic rate % week 3,db/db mice; 1 mg/kg once daily oral,26.4%
same,Hypoglycemic rate % week 4,db/db mice; 1 mg/kg once daily oral,30.5%
same,Hypoglycemic rate % week 1,db/db mice; 3 mg/kg once daily oral,32.0%
same,Hypoglycemic rate % week 2,db/db mice; 3 mg/kg once daily oral,27.7%
same,Hypoglycemic rate % week 3,db/db mice; 3 mg/kg once daily oral,25.4%
same,Hypoglycemic rate % week 4,db/db mice; 3 mg/kg once daily oral,43.8%
"CCc1ccc(Cc2ccc3c(c2)[C@]2(OC3)O[C@H](C)[C@@H](O)[C@H](O)[C@H]2O)s1 [Example A8, (1S,3′R,4′S,5′S,6′R)-6′-methyl-6-((5-ethylthienyl)-2-methyl)-3′,4′,5′,6′-tetrahydro-3H-spiro [isobenzofuran-1,2′-pyran]-3′,4′,5′-triol]",inhibition at 0.01 µM,[1],30.4 ± 4.8%
same,inhibition at 0.1 µM,[1],59.1 ± 5.3%
same,IC50,[1]; read-out: IC50 ± SD SGLT2,0.285 ± 0.117 µM
"C[C@H]1O[C@]2(OCc3cc(Cl)c(Cc4ccc(C5(C#N)CC5)cc4)cc32)[C@H](O)[C@@H](O)[C@@H]1O [Example A108, 1-(4-(((1S,3′R,4′S,5′S,6′R)-5-chloro-3′,4′,5′-trihydroxy-6′-methyl-3′,4′,5′,6′-tetrahydro-3H-spiro[isobenzofuran-1,2′-pyran]-6-yl)methyl)phenyl)cyclopropane-1-formonitrile]",inhibition at 0.01 µM,[1],100.4 ± 0.9%
same,inhibition at 0.1 µM,[1],96.2 ± 3.4%
"Cc1ccc(Cc2ccc3c(c2)[C@]2(OC3)O[C@H](C)[C@@H](O)[C@H](O)[C@H]2O)s1 [Example A7, (1S,3′R,4′S,5′S,6′R)-6′-methyl-6-((5-methylthienyl)-2-methyl)-3′,4′,5′,6′-tetrahydro-3H-spiro [isobenzofuran-1,2′-pyran]-3′,4′,5′-triol]",inhibition at 0.01 µM,[1],15.7 ± 25.2%
same,inhibition at 0.1 µM,[1],27.9 ± 1.9%
"C[C@H]1O[C@]2(OCc3ccc(Cc4ccc5ccccc5c4)cc32)[C@H](O)[C@@H](O)[C@@H]1O [Example A14, (1S,3′R,4′S,5′S,6′R)-6′-methyl-6-(naphthyl-2-methyl)-3′,4′,5′,6′-tetrahydro-3H-spiro [isobenzofuran-1,2′-pyran]-3′,4′,5′-triol]",inhibition at 0.01 µM,[1],25.8 ± 15%
same,inhibition at 0.1 µM,[1],55.8 ± 13.2%
"CCc1ccc(C(=O)c2cc3c(cc2Cl)CO[C@]32O[C@H](C)[C@@H](O)[C@H](O)[C@H]2O)s1 [Example A113, ((1S,3′R,4′S,5′S,6′R)-5-chloro-3′,4′,5′-trihydroxy-6′-methyl-3′,4′,5′,6′-tetrahydro-3H-spiro[isobenzofuran-1,2′-pyran]-6-yl)(5-ethylthiophene-2-yl)ketone]",inhibition at 0.01 µM,[1],20.9 ± 16.3%
same,inhibition at 0.1 µM,[1],22.5 ± 10.7%
"Cc1ccc(Cc2ccc3c(c2)[C@]2(OC3)O[C@H](C)[C@@H](O)[C@H](O)[C@H]2O)cc1 [Example A1, (1S,3′R,4′S,5′S,6′R)-6′-methyl-6-(4-methylbenzyl)-3′,4′,5′,6′-tetrahydro-3H-spiro[isobenzofuran-1,2′-pyran]-3′,4′,5′-triol]",inhibition at 0.01 µM,[1],21.2 ± 14.4%
same,inhibition at 0.1 µM,[1],26.9 ± 9.1%
"C[C@H]1O[C@]2(OCc3ccc(Cc4ccc(Cl)s4)cc32)[C@H](O)[C@@H](O)[C@@H]1O [Example A10, (1S,3′R,4′S,5′S,6′R)-6′-methyl-6-((5-chlorothienyl)-2-methyl)-3′,4′,5′,6′-tetrahydro-3H-spiro [isobenzofuran-1,2′-pyran]-3′,4′,5′-triol]",inhibition at 0.01 µM,[1],28.1 ± 25.8%
same,inhibition at 0.1 µM,[1],45.8 ± 10.2%
"CCCOCCc1ccc(Cc2cc3c(cc2Cl)CO[C@]32O[C@H](C)[C@@H](O)[C@H](O)[C@H]2O)s1 [Example A116, (1S,3′R,4′S,5′S,6′R)-5-chloro-6-((5-(2-propoxyethyl)thiophene-2-yl)methyl)-6′-methyl-3′,4′,5′,6′-tetrahydro-3H-spiro[isobenzofuran-1,2′-pyran]-3′,4′,5′-triol]",inhibition at 0.01 µM,[1],89.4 ± 1.5%
same,inhibition at 0.1 µM,[1],62.3 ± 6%
CCc1ccc(C(O)c2cc3c(cc2Cl)CO[C@]32O[C@H](C)[C@@H](O)[C@H](O)[C@H]2O)s1 (stereo partly drawn) [Example A120],inhibition at 0.01 µM,[1],4 ± 9.2%
same,inhibition at 0.1 µM,[1],22.8 ± 8.1%
"C[C@H]1O[C@]2(OCc3ccc(Cc4ccc(-c5ccccc5)s4)cc32)[C@H](O)[C@@H](O)[C@@H]1O [Example A12, (1S,3′R,4′S,5′S,6′R)-6′-methyl-6-((5-phenylthienyl)-2-methyl)-3′,4′,5′,6′-tetrahydro-3H-spiro [isobenzofuran-1,2′-pyran]-3′,4′,5′-triol]",inhibition at 0.01 µM,[1],20.4 ± 28.4%
same,inhibition at 0.1 µM,[1],49.1 ± 20%
"C[C@H]1O[C@]2(OCc3cc(Cl)c(Cc4ccc(C5(C#N)CC5)s4)cc32)[C@H](O)[C@@H](O)[C@@H]1O [Example A109, 1-(5-(((1S,3′R,4′S,5′S,6′R)-5-chloro-3′,4′,5′-trihydroxy-6′-methyl-3′,4′,5′,6′-tetrahydro-3H-spiro[isobenzofuran-1,2′-pyran]-6-yl)methyl)thiophene-2-yl)cyclopropane-1-formonitrile]",inhibition at 0.01 µM,[1],86.8 ± 1.6%
same,inhibition at 0.1 µM,[1],62.6 ± 7.2%
"COc1ccc(Cc2ccc3c(c2)[C@]2(OC3)O[C@H](C)[C@@H](O)[C@H](O)[C@H]2O)cc1 [Example A5, (1S,3′R,4′S,5′S,6′R)-6′-methyl-6-(4-methoxybenzyl)-3′,4′,5′,6′-tetrahydro-3H-spiro[isobenzofuran-1,2′-pyran]-3′,4′,5′-triol]",inhibition at 0.01 µM,[1],26 ± 14%
same,inhibition at 0.1 µM,[1],28.9 ± 7.2%
